This is an account of results in ChEMBL document CHEMBL2146459, “Potentiation of ribonuclease cytotoxicity by a poly(amidoamine) dendrimer” (Bioorg Med Chem Lett, 2011).

Activity calls are given as the source filed them. No cut-off for these calls is given here.

In test [1] the test system is K562. Nature of the test: Potentiation of bovine RNase-A G88R mutant-induced cytotoxicity against human K562 cells assessed as incorporation of [methyl-3H]-thymidine into cellular DNA at 10 uM after 4 hrs by liquid scintillation counting. Type of test: functional.
Test [2] concerns the target T1, Ribonuclease pancreatic (Bos taurus) (UniProt P61823).
T1 sequence (whole entry): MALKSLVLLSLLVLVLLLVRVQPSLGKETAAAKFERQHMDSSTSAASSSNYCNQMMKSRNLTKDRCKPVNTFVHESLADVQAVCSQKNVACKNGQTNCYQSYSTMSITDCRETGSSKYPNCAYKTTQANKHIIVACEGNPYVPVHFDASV
Nature of the test: Effect on bovine RNase A ribonucleolytic activity assessed as kcat/KM ratio of 6-FAM-dArUdAdA-6-TAMRA at 1 uM by fluorescence assay.

Test [3] addresses T1, Ribonuclease pancreatic (Bos taurus). Nature of the test: Binding affinity to bovine RNase A in PBS assessed as melting temperature at 10 uM after 3 hrs by UV spectroscopy (reference value: 62.7 +/- 0.1 degC).
For test [4], the system named is K562. As to the kind of experiment: Potentiation of bovine wild type RNase-A-induced cytotoxicity against human K562 cells assessed as incorporation of [methyl-3H]-thymidine into cellular DNA at 1 to 10 uM after 4 hrs by liquid scintillation counting. Type of test: functional, cell-based.
Test [5] relates to K562. Nature of the test: Potentiation of bovine RNase-A DRNG mutant-induced cytotoxicity against human K562 cells assessed as incorporation of [methyl-3H]-thymidine into cellular DNA at 10 uM after 4 hrs by liquid scintillation counting. Type of test: functional.
Test [6] deals with T1, Ribonuclease pancreatic (Bos taurus). Nature of the test: Induction of bovine RNaseA internalization in human K562 cells assessed as internalization count at 1 uM after 3 hrs by flow cytometry. Type of test: cell-based. Background: A flow cytometer gives signals particle by particle.
Test [7] has the same target. As to the kind of experiment: Effect on bovine RNase A ribonucleolytic activity assessed as kcat/KM ratio of 6-FAM-dArUdAdA-6-TAMRA at 10 uM by fluorescence assay.
Test [8] has the same target. As to the kind of experiment: Induction of bovine RNaseA internalization in human K562 cells assessed as internalization count at 10 uM after 3 hrs by flow cytometry. The class given is cell-based.
In a further test the target is T2, Ribonuclease pancreatic (Bos taurus, UniProt P61823).
T2 sequence (P61823 whole entry): T1 sequence (whole entry)
As to the kind of experiment: Inhibition of bovine RNase A interaction to ribonuclease inhibitor protein after 30 mins by competition assay.

The target of test [9] is T1, Ribonuclease pancreatic (Bos taurus). Nature of the test: Binding affinity to bovine RNase A in PBS buffer assessed as melting temperature at 1 uM after 3 hrs by UV spectroscopy (reference value: 62.7 +/- 0.1 degC).

As a reminder, the Kd is the concentration at which binding is half-saturated. Turning to `NCCNC(=O)CCN(CCNC(=O)CCN(CCNC(=O)CCN(CCC(=O)NCCN(CCC(=O)NCCN(CCC(=O)NCCN)CCC(=O)NCCN)CCC(=O)NCCN(CCC(=O)NCCN)CCC(=O)NCCN)CCN(CCC(=O)NCCN(CCC(=O)NCCN(CCC(=O)NCCN)CCC(=O)NCCN)CCC(=O)NCCN(CCC(=O)NCCN)CCC(=O)NCCN)CCC(=O)NCCN(CCC(=O)NCCN(CCC(=O)NCCN)CCC(=O)NCCN)CCC(=O)NCCN(CCC(=O)NCCN)CCC(=O)NCCN)CCC(=O)NCCN(CCC(=O)NCCN)CCC(=O)NCCN)CCC(=O)NCCN` [POLY(AMIDOAMINE)DENDRIMER], the “fold change (FC)” value in the test with K562 [1] and in the test with K562 [5] was 5 throughout. For the same compound, the outcome (in test [2]; in the test with K562 [4]; in test [6]; in test [7]; in test [8]) was inactive. The Tm worked out at 63.2 °C in [3] and 62.8 °C in test [9]. Also, the dissociation constant (Kd) at Ribonuclease pancreatic was determined as 3.1 µM.
